Experimental data taken from patent US7122550B2, “Protein kinase inhibitors” (Cytopia Pty Ltd, priority 2002, dated 2006).

How the values were obtained:
Format in all cases: cell-based
DU145 = test: Cellular growth inhibition assay (MTT), DU145 cells; details: Homo sapiens, DU-145, 40 hr incubation, read-out: DU145: growth inhibitory activity
Experimental: (§1) Cell suspensions were prepared by harvesting cells from culture. (Cells used in this test should be in later log phase growth and high viability.) Cells were diluted in correct growth medium to 1.1×final concentration (from 50000 cell/mL to 200,000 cell/mL, depending on cell line).
(§2) Compounds to be tested were added (10 μL, 10×final concentration) to a flat bottom 96-well plate. The cellular suspension (90 μL per well) was added, and the plate incubated for 40 hr at 37° C., 5% CO2. MTT (20 μL per well, 5 mg/mL in PBS) was added and the plates were returned to the incubator for a further 6 hours. Lysis buffer (100 μL per well, 10% SDS, 0.01N HCl) was added and the plate stored in the incubator overnight. The plate was then read at 590 nm.

Tel-Jak2 = target: T1, Tel-Jak2 (Homo sapiens, UniProt O60674); test: Cellular growth inhibition assay (MTT), Tel-Jak2 transformed BaF3 cell line; details: 40 hr incubation, read-out: Jak2: growth inhibitory activity (>50%) in transformed cell line Tel-Jak2
T1 construct: The regions encompassing the kinase domains of JAK2 (nucleotides 2994–3914); TEL (ETV6, human P41212) N-terminal part encoded by nucleotides 1-487 of TEL; expressed in transfected cells; host or cells: BaF3 (murine) bearing pTET-off, transfected with pTELJAK2 (pTRE2 vector); the other entry of the earlier key: ETV6 (P41212, Transcription factor ETV6)
T1 sequence (O60674 with tags, fused parts or gaps): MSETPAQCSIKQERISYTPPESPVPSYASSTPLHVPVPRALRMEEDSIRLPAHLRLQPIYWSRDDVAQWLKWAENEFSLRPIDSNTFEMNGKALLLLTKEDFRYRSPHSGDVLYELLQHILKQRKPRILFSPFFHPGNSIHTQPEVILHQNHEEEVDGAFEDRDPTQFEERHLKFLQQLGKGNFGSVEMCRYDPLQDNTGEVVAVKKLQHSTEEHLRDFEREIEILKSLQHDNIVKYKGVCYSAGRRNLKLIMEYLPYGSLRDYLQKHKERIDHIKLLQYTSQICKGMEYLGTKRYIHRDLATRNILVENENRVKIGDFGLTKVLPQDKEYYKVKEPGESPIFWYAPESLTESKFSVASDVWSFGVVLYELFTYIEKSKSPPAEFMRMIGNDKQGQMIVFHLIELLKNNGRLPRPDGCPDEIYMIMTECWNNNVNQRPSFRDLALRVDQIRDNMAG
Source text: (§3) The coding region encompassing nucleotides 1–487 of TELwas amplified by PCR using the oligonucleotides 5TEL (5′-GGAGGATCCTGATCTCTCTCGCTGTGAGAC-3′) and 3TEL (5′-AGGC GTCGACTTCTTCTTCATGGTTCTG-3′) and U937 mRNA as template. A BamHI site was present into the 5TEL Primer, a SalI site was incorporated into the 3TEL primer. The regions encompassing the kinase domains of JAK2 (nucleotides 2994–3914; JAK2F 5′-ACGC GTCGACGGTGCCTTTGAAGACCGGGAT-3′; JAK2R 5′-ATAGTTTAGCGGCCGCTCAGAATGAAGGTCATTT-3′) and JAK3 (nucleotides 2520–3469; JAK3F 5′-GAAGTCGACTATGCCTGCCAAGACCCCACGATCTT-3′; JAK3R 5′-GGATCTAGACTATGAAAAGGACAGGGAGTGGTGTTT-3′) were generated by PCR using Taq DNA Polymerase (Gibco/BRL) and U937 mRNA as template. A SalI site was incorporated into the forward primer of JAK2 and JAK3, a NotI site was incorporated into the JAK2 reverse primer and a Xba I site was added to the reverse primer of JAK3.
(§4) A TEL/Jak2 fusion was generated by digestion of the TELPCR product with BamHI/SalI, digestion of the JAK2 PCR product with SalI/NotI followed by ligation and subcloning into the mammalian expression Vector pTRE 2 (Clontech) digested with BamHI-NotI (pTELJAK2). For JAK3 SalI/NotI cleaved kinase domain PCR product was ligated with BamHI/SalI cleaved TELproduct followed by ligation into BamHI/NotI cleaved pTRE2 (pTELJAK3).
(§5) The growth factor dependent myelomonocytic cell line BaF3 bearing the pTET-off plasmid (Clontech) was transfected with either pTELJAK2 or pTELJAK3 and the cells selected for factor independent growth. BaF 3 wild type cells were cultured in DMEM 10% FCS, 10% WEHI 3B conditioned medium. BaF3 TELJAK cells were cultured in DMEM 10% Tet-System Approved FBS (without WEHI 3B conditioned medium).
as §1, §2

Tel-Jak3 = target: T2, Tel-Jak3 (Homo sapiens, UniProt P52333); test: Cellular growth inhibition assay (MTT), Tel-Jak3 transformed BaF3 cell line; details: 40 hr incubation, read-out: Jak3: growth inhibitory activity (>50%) in transformed cell line Tel-Jak3
T2 construct: TEL (ETV6, human P41212) N-terminal part encoded by nucleotides 1-487 of TEL; expressed in transfected cells; host or cells: BaF3 (murine) bearing pTET-off, transfected with pTELJAK3 (pTRE2 vector); the other entry of the earlier key: ETV6 (P41212, Transcription factor ETV6)
T2 sequence (P52333 with tags, fused parts or gaps): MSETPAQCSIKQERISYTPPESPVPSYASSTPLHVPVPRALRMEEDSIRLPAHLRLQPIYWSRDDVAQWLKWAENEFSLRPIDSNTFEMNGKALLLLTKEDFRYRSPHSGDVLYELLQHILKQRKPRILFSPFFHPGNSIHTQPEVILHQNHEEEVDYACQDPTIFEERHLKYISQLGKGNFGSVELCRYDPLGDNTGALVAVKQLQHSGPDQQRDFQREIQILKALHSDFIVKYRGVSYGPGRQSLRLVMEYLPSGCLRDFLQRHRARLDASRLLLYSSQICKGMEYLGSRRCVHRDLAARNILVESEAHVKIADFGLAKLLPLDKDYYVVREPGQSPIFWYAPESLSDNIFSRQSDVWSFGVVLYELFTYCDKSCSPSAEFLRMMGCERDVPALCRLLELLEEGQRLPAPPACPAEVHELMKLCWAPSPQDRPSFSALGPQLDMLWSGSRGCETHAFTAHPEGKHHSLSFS
Source text: as §3, §4, §5, §1, §2

SMILES: COc1cc(-c2cncc(N(C)Cc3ccccc3)n2)ccc1O [Chemistry 137]
- inhibition at 50 µM (DU145): < 50%
- inhibition at 50 µM (Tel-Jak2): > 50%
- inhibition at 50 µM (Tel-Jak3): > 50%

SMILES: COc1cc(-c2cncc(NC(C)c3ccc(NCCN4CCN(C)CC4)cc3)n2)ccc1O (stereo not drawn) [Chemistry 318]
- inhibition at 50 µM (DU145): < 50%
- inhibition at 50 µM (Tel-Jak2): > 50%
- inhibition at 50 µM (Tel-Jak3): > 50%

SMILES: COc1cc(-c2cncc(NC(C)c3cccc(NC(C)=O)c3)n2)ccc1O (stereo not drawn) [Chemistry 276]
- inhibition at 50 µM (DU145): < 50%
- inhibition at 50 µM (Tel-Jak2): > 50%
- inhibition at 50 µM (Tel-Jak3): > 50%

SMILES: COc1cc(-c2cncc(NCc3cccnc3)n2)ccc1O [Chemistry 136]
- inhibition at 50 µM (DU145): > 50%
- inhibition at 50 µM (Tel-Jak2): > 50%
- inhibition at 50 µM (Tel-Jak3): > 50%

SMILES: COc1cc(-c2cncc(NCc3ccc(Cl)c(Cl)c3)n2)ccc1O [Chemistry 139]
- inhibition at 50 µM (DU145): < 50%
- inhibition at 50 µM (Tel-Jak2): > 50%
- inhibition at 50 µM (Tel-Jak3): > 50%

SMILES: COc1cc(-c2cncc(NC(C)c3ccc(NC(=O)CN4CCN(C)CC4)cc3)n2)ccc1O (stereo not drawn) [Chemistry 282]
- inhibition at 50 µM (DU145): > 50%
- inhibition at 50 µM (Tel-Jak2): > 50%
- inhibition at 50 µM (Tel-Jak3): > 50%

SMILES: COc1cc(-c2cncc(NC(C)c3ccc(C(=O)NCCN(C)C)cc3)n2)ccc1O (stereo not drawn) [Chemistry 352]
- inhibition at 50 µM (DU145): < 50%
- inhibition at 50 µM (Tel-Jak2): > 50%
- inhibition at 50 µM (Tel-Jak3): > 50%

SMILES: CC[C@H](Nc1cncc(-c2ccc(O)c(OC)c2)n1)c1ccccc1 [Chemistry 119]
- inhibition at 50 µM (DU145): > 50%
- inhibition at 50 µM (Tel-Jak2): > 50%
- inhibition at 50 µM (Tel-Jak3): > 50%

SMILES: COc1cc(-c2cncc(NC(C)c3ccc(C(=O)O)cc3)n2)ccc1O (stereo not drawn) [Chemistry 324]
- inhibition at 50 µM (DU145): < 50%
- inhibition at 50 µM (Tel-Jak2): < 50%
- inhibition at 50 µM (Tel-Jak3): < 50%

SMILES: COc1cc(-c2cncc(NC(C)c3ccc(C(=O)NCC4CC4)cc3)n2)ccc1O (stereo not drawn) [Chemistry 354]
- inhibition at 50 µM (DU145): < 50%
- inhibition at 50 µM (Tel-Jak2): > 50%
- inhibition at 50 µM (Tel-Jak3): > 50%
